Legend:
Salmonidae [1] = experiment: Binding affinity to Salmon testes DNA
Salmonidae [2] = experiment: Effect on Salmon testes DNA stabilization assessed as thermal denaturation at 100 uM; assay type: functional

Compound | Ka (Salmonidae [1]) | ΔTm (Salmonidae [2])
O=C(NCCCN1CCOCC1)c1cccc2c1-c1ccccc1C2=O | 2.3 10^4/M | -0.8 °C
CN(C)CCNC(=O)c1cccc2c1-c1ccccc1C2=O | 3.3 10^3/M | 0.2 °C
O=C(NCCO)c1cccc2c1-c1ccccc1C2=O | – | 1.9 °C
CC(O)CNC(=O)c1cccc2c1-c1ccccc1C2=O (stereo unspecified) | – | 2.1 °C
O=C(NCCN1CCOCC1)c1cccc2c1-c1ccccc1C2=O | 1.6 10^5/M | 1.2 °C
O=C(NCCOCCO)c1cccc2c1-c1ccccc1C2=O | – | 0.2 °C
CN(C)CCCNC(=O)c1cccc2c1-c1ccccc1C2=O | 3.1 10^4/M | 2.1 °C
O=C(NCCCO)c1cccc2c1-c1ccccc1C2=O | 8.4 10^3/M | 3.1 °C
O=C(NCCCCO)c1cccc2c1-c1ccccc1C2=O | – | -0.8 °C
CCN(CC)CCNC(=O)c1cccc2c1-c1ccccc1C2=O | 7.8 10^4/M | 2.1 °C

— ChEMBL document CHEMBL1147214, “Tetraplex DNA specific ligands based on the fluorenone-carboxamide scaffold” (Bioorg Med Chem Lett, 2007)
